This note sets out measurements from US7897602B2, “Indolinone compounds as kinase inhibitors” (Development Center for Biotechnology, priority 2009, dated 2011).

SMILES strings stand for the structures.

Holding throughout (type): biochemical
In one experiment the target is T1, Aurora A kinase (Homo sapiens, UniProt O14965).
T1 construct: purchased Upstate
T1 sequence (O14965 1-403): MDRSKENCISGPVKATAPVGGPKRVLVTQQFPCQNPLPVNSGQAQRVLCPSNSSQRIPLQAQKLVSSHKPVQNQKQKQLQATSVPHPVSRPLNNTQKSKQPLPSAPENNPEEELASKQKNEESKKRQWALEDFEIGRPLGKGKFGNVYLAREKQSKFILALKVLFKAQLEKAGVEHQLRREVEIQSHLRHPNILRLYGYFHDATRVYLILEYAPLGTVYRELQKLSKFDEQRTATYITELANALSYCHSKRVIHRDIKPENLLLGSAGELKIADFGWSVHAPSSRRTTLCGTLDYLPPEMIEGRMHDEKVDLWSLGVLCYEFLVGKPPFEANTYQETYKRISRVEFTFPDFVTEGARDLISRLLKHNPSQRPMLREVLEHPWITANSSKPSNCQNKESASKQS
Put plainly: Aurora A kinase assay ([γ-33P]ATP, CHOCKtide substrate). The following applies: for inhibition at 1 µM: 1.0 μM test compound. Here is the method:
(§1) Inhibition of Aurora Kinase by the compounds disclosed herein was determined by incubating Aurora kinase, substrate, and a test compound together for a period of time followed by quantifying the resultant phosphorylated product. Specifically, in a well of a 96-well round bottom plate, 25 μL of a reaction mixture containing (1) a test compound disclosed herein (diluted from 9 μM to the desired final concentration), [γ-33P]ATP/ATP mix (10 μM), CHOCKtide (1 μg, Genesis Biotech Inc.), and Aurora-A (1 ng, purchased from Upstate); or (2) a test compound disclosed herein (diluted from 9 μM to the desired final concentration), [γ-33P]ATP/ATP mix (40 μM), CHOCKtide (1 μg, Genesis Biotech Inc.), and Aurora-B (2.5 ng, purchased from Cell signaling); was prepared and incubated at 33° C. for 30 minutes. The reaction was then stopped by adding 5 μL of 3% phosphoric acid. The resultant solution (30 μL) was later harvested by a UniFilter Plate GF/B (PerkinElmer) followed by adding 30 μL of the scintillation cocktail (MicroScint 20, PerkinElmer) to the well. The radioactivity retained on the filter membrane was measured by a luminescence counter (PerkinElmer). IC50 value is defined as the concentration of the test compound which achieves a half-maximal inhibition of the kinase activity.

The target of a further experiment is T2, Aurora B kinase (Homo sapiens, UniProt Q96GD4).
T2 construct: purchased Cell signaling
T2 sequence (Q96GD4 whole entry): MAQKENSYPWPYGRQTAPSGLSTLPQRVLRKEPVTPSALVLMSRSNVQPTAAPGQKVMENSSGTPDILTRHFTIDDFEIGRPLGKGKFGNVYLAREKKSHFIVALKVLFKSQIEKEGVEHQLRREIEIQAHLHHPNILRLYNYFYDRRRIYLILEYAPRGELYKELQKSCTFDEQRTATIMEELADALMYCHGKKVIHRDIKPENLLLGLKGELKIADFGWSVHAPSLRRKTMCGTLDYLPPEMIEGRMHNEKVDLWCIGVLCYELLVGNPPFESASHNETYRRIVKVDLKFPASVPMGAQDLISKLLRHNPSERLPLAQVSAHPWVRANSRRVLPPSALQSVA
The experiment is described as follows: Aurora B kinase assay ([γ-33P]ATP, CHOCKtide substrate). The following applies: for inhibition at 1 µM: 1.0 μM test compound. Here is the method: as §1

The target in a further experiment is T3, c-Met kinase (Homo sapiens, UniProt P08581).
T3 construct: recombinant N-terminal 6×His-tagged c-Met kinase domain construct expressed from baculovirus; 6xHis (N); made in house
T3 sequence (P08581 1078-1345 limits assumed): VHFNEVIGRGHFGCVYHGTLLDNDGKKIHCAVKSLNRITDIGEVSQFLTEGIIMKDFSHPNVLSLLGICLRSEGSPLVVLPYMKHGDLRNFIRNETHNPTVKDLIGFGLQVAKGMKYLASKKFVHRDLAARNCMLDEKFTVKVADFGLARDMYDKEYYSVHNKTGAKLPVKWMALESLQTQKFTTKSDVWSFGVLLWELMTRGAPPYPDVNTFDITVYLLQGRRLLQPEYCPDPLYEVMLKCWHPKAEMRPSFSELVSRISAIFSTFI
The experiment is described as follows: c-Met kinase assay (33P incorporation into Poly(Glu-Tyr)). The following applies: 500 nM test compound. Here is the method:
Inhibition of c-Met kinase activity by compounds disclosed herein was quantified by measuring the amount of [^33P] incorporated into the substrate in the presence of a test compound. Briefly, a reaction mixture of 25 μL final volume containing 5 ng of c-Met kinase (obtained by purifying recombinant N-terminal 6×His-tagged c-Met kinase domain construct expressed from baculovirus), 1 μg of the substrate (Poly (Glu-Tyr, 4:1, Sigma)), kinase reaction buffer (20 mM MOPS pH 7.0, 1 mM EDTA, 5% glycerol, 0.01% Brij-35, 0.1% β-mercaptoethanol, 1 mg/mL BSA, 100 μM ATP, 0.1 μCi per well [^33P]-γ-ATP (2,500-3,000 Ci/mmol)), and a test compound (500 nM, diluted with 4% DMSO) or DMSO (as the control) was incubated at 30° C. for 30 minutes. The reaction was stopped by adding 5 μL of 3% phosphoric acid solution. The resultant reaction solution was then harvested onto a filter plate (UniFilter-96 GF/B, PerkinElmer), washed 20 times for 5 min with d.d. H2O, and followed by the addition of 30 μL of MicroScint™-20 Cocktail (PerkinElmer). The plate was then sealed and counted using a TopCount scintillation detector (PerkinElmer). The percentage of inhibition rate of the test compound was calculated by dividing the retained radioactivity of the test sample with the retained radioactivity of the control sample and shown in Table 3.

For `CCOC(=O)CCc1c(/C=C2\C(=O)Nc3ccc(NS(=O)(=O)c4cc(Cl)cc(Cl)c4)cc32)[nH]c2c1C(=O)CCC2` [DCB-70193, (Z)-ethyl 3-(2-((5-(3,5-dichlorophenylsulfonamido)-2-oxoindolin-3-ylidene)methyl)-4-oxo-4,5,6,7-tetrahydro-1H-indol-3-yl)propanoate], the inhibition at 1 µM against Aurora A kinase amounted to 74.3%; against Aurora B kinase, 36.7%. The same compound registered an inhibition at 0.5 µM on c-Met kinase of 11.2%.
On Aurora A kinase, `O=C(O)CCc1c(/C=C2\C(=O)Nc3ccc(NS(=O)(=O)c4cc(Cl)cc(Cl)c4)cc32)[nH]c2c1C(=O)CCC2` [DCB-70194, (Z)-3-(2-((5-(3,5-dichlorophenylsulfonamido)-2-oxoindolin-3-ylidene)methyl)-4-oxo-4,5,6,7-tetrahydro-1H-indol-3-yl)propanoic acid] yielded a 50% inhibitory concentration (IC50) of 151 nM and an inhibition at 1 µM of 85.3%. At Aurora B kinase, at 1 µM the inhibition was 41.7%. At c-Met kinase, the inhibition at 0.5 µM was 12.9%.
`CCOC(=O)CCc1c(/C=C2\C(=O)Nc3ccc(NS(=O)(=O)c4cccc(OC)c4)cc32)[nH]c2c1C(=O)CCC2` [DCB-70195, (Z)-ethyl 3-(2-((5-(3-methoxyphenylsulfonamido)-2-oxoindolin-3-ylidene)methyl)-4-oxo-4,5,6,7-tetrahydro-1H-indol-3-yl)propanoate]: the values for the inhibition at 1 µM at Aurora A kinase and at Aurora B kinase were 73.1% and 47.5%, respectively. The compound also displayed an inhibition at 0.5 µM on c-Met kinase of 15.3%.
Turning to `COc1cccc(S(=O)(=O)Nc2ccc3c(c2)/C(=C/c2[nH]c4c(c2CCC(=O)O)C(=O)CCC4)C(=O)N3)c1` [DCB-70196, (Z)-3-(2-((5-(3-methoxyphenylsulfonamido)-2-oxoindolin-3-ylidene)methyl)-4-oxo-4,5,6,7-tetrahydro-1H-indol-3-yl)propanoic acid], the concentration for half-maximal inhibition (IC50) against Aurora A kinase was found to be 61.4 nM; against Aurora B kinase it was 673 nM. Moreover, the inhibition at 1 µM against Aurora A kinase came to 91.8%; on Aurora B kinase, 55.8%. Besides, the inhibition at 0.5 µM on c-Met kinase came to 13.8%.
For the compound `CCOC(=O)CCc1c(/C=C2\C(=O)Nc3ccc(NS(=O)(=O)Cc4ccccc4)cc32)[nH]c2c1C(=O)CCC2` [DCB-70197, (Z)-ethyl 3-(4-oxo-2-((2-oxo-5-(phenylmethylsulfonamido)indolin-3-ylidene)methyl)-4,5,6,7-tetrahydro-1H-indol-3-yl)propanoate], the inhibition at 1 µM against Aurora A kinase came out at 48.7%; against Aurora B kinase, 39.9%. Also, the inhibition at 0.5 µM against c-Met kinase was found to be 21.1%.
As for `O=C(O)CCc1c(/C=C2\C(=O)Nc3ccc(NS(=O)(=O)Cc4ccccc4)cc32)[nH]c2c1C(=O)CCC2` [DCB-70198, (Z)-3-(4-oxo-2-((2-oxo-5-(phenylmethylsulfonamido)indolin-3-ylidene)methyl)-4,5,6,7-tetrahydro-1H-indol-3-yl)propanoic acid], the IC50 against Aurora A kinase amounted to 62.8 nM; against Aurora B kinase, 402 nM. The inhibition at 1 µM worked out at 96.1% at Aurora A kinase and 69.8% at Aurora B kinase. The inhibition at 0.5 µM against c-Met kinase amounted to 20.2%.
For the compound `CC(=O)c1c(C)[nH]c(/C=C2\C(=O)Nc3ccc(NS(=O)(=O)c4ccccc4)cc32)c1CCC(=O)O` [DCB-70200, (Z)-3-(4-acetyl-5-methyl-2-((2-oxo-5-(phenylsulfonamido)indolin-3-ylidene)methyl)-1H-pyrrol-3-yl)propanoic acid], the results for the IC50 against Aurora A kinase and against Aurora B kinase were 60.6 nM and 870 nM, respectively. The values for the inhibition at 1 µM against Aurora A kinase and against Aurora B kinase were 93.1% and 57.3%, respectively. At c-Met kinase, this compound registered an inhibition at 0.5 µM of 15.2%.
Consider `CCOC(=O)CCc1c(/C=C2\C(=O)Nc3ccc(NS(=O)(=O)c4ccccc4)cc32)[nH]c(C)c1C(C)=O` [DCB-70201, (Z)-ethyl 3-(4-acetyl-5-methyl-2-((2-oxo-5-(phenylsulfonamido)indolin-3-ylidene)methyl)-1H-pyrrol-3-yl)propanoate], for which the inhibition at 1 µM against Aurora A kinase was found to be 48.2%; at Aurora B kinase, 36.6%. Further, on c-Met kinase, the inhibition at 0.5 µM was found to be 18.8%.
As for `CC(=O)c1c(C)[nH]c(/C=C2\C(=O)Nc3ccc(S(=O)(=O)Cc4c(Cl)cccc4Cl)cc32)c1CCC(=O)O` [DCB-70202, (Z)-3-(4-acetyl-2-((5-(2,6-dichlorobenzylsulfonyl)-2-oxoindolin-3-ylidene)methyl)-5-methyl-1H-pyrrol-3-yl)propanoic acid], the inhibition at 1 µM was determined as 40.2% on Aurora A kinase and 7.3% at Aurora B kinase. The same compound had an inhibition at 0.5 µM on c-Met kinase of 85.2%.
Turning to `CC(=O)c1c(C)[nH]c(/C=C2\C(=O)Nc3ccc(S(=O)(=O)Cc4c(Cl)cccc4Cl)cc32)c1CCC(=O)N1CCN(C)CC1` [DCB-70205, (Z)-3-((4-acetyl-5-methyl-3-(3-(4-methylpiperazin-1-yl)-3-oxopropyl)-1H-pyrrol-2-yl)methylene)-5-(2,6-dichlorobenzylsulfonyl)indolin-2-one], the inhibition at 1 µM was determined as 11.3% against Aurora A kinase and 2.4% against Aurora B kinase. The inhibition at 0.5 µM against c-Met kinase was determined as 97%.
For the compound `CC(=O)c1c(C)[nH]c(/C=C2\C(=O)Nc3ccc(S(=O)(=O)N4CCc5ccccc54)cc32)c1CCC(=O)N1CCN(C)CC1` [DCB-70206, (Z)-3-((4-acetyl-5-methyl-3-(3-(4-methylpiperazin-1-yl)-3-oxopropyl)-1H-pyrrol-2-yl)methylene)-5-(indolin-1-ylsulfonyl)indolin-2-one], the inhibition at 1 µM on Aurora A kinase came out at 37.4%; against Aurora B kinase, 21.1%. Further, 0.5 µM produced 77.4% inhibition against c-Met kinase.
The matching figures for `CC(=O)c1c(C)[nH]c(/C=C2\C(=O)Nc3ccc(F)cc32)c1CCC(=O)N1CCN(C)CC1` [DCB-70207, (Z)-3-((4-acetyl-5-methyl-3-(3-(4-methylpiperazin-1-yl)-3-oxopropyl)-1H-pyrrol-2-yl)methylene)-5-fluoroindolin-2-one]: 10.3%, 6.8% and 21.1%.
On the same counts, the results for `CCOC(=O)CCc1c(/C=C2\C(=O)Nc3ccc(S(=O)(=O)Cc4c(Cl)cccc4Cl)cc32)[nH]c2c1C(=O)CCC2` [DCB-70209, (Z)-ethyl 3-(2-((5-(2,6-dichlorobenzylsulfonyl)-2-oxoindolin-3-ylidene)methyl)-4-oxo-4,5,6,7-tetrahydro-1H-indol-3-yl)propanoate] are 22.7%, 16.3% and 92.1%.
On Aurora A kinase, `CCOC(=O)CCc1c(/C=C2\C(=O)Nc3ccc(S(=O)(=O)N4CCc5ccccc54)cc32)[nH]c2c1C(=O)CCC2` [DCB-70210, (Z)-ethyl 3-(2-((5-(indolin-1-ylsulfonyl)-2-oxoindolin-3-ylidene)methyl)-4-oxo-4,5,6,7-tetrahydro-1H-indol-3-yl)propanoate] registered a concentration for half-maximal inhibition (IC50) of 100 nM and an inhibition at 1 µM of 74.6%. The compound further registered an inhibition at 1 µM against Aurora B kinase of 45.5%. On c-Met kinase, this compound yielded an inhibition at 0.5 µM of 75.3%.
As to `CCN(CC)CCNC(=O)CCc1c(/C=C2\C(=O)Nc3ccc(S(=O)(=O)Cc4c(Cl)cccc4Cl)cc32)[nH]c(C)c1C(C)=O` [DCB-70212, (Z)-3-(4-acetyl-2-((5-(2,6-dichlorobenzylsulfonyl)-2-oxoindolin-3-ylidene)methyl)-5-methyl-1H-pyrrol-3-yl)-N-(2-(diethylamino)ethyl)propanamide], the inhibition at 1 µM at Aurora A kinase is 3.5%; at Aurora B kinase it was 6.3%. Further, the inhibition at 0.5 µM against c-Met kinase turned out to be 95.2%.
As to `CCN(CC)CCNC(=O)CCc1c(/C=C2\C(=O)Nc3ccc(F)cc32)[nH]c(C)c1C(C)=O` [DCB-70213, (Z)-3-(4-acetyl-2-((5-fluoro-2-oxoindolin-3-ylidene)methyl)-5-methyl-1H-pyrrol-3-yl)-N-(2-(diethylamino)ethyl)propanamide], the inhibition at 1 µM against Aurora A kinase turned out to be 1%; on Aurora B kinase, 16.4%. Moreover, 0.5 µM produced 15.5% inhibition against c-Met kinase.

The term inhibition denotes the relative decrease from the control value, in per cent. A lower inhibition goes with a weak effect. The IC50 is the concentration that inhibits the measured activity by half.
